# Values of other authors in patent US10653742B2, “Anti-inflammatory use of liquid phytocomplexes from olive” (FATTORIA LA VIALLA DI GIANNI, ANTONIO E BANDINO LO …, priority 2013, dated 2020).
# Conditions: also in high concentrations
compound,measurement,value
OCCc1ccc(O)c(O)c1 [Hydroxytyrosol],toxic effect on in vivo administration,no toxic effect
